# Read-outs that look alike come from different tables or passages of the source.
# Legend:
# Staphylococcus aureus = test: Experimental bacterial infection in mice, ED50; assay type: in vivo; settings: two doses, dose protecting 50% of animals; for ED50: Staphylococcus aureus
# Experimental: (§1) The new derivatives of this invention have also shown in vivo antimicrobial activity against experimental bacterial infections. When two doses of test compound were administered to mice in experimental infections, the activity observed was measured as an EDso value [effective dose in mg/kg to protect 50% of the test animals: see Warren Wick, et al., J. Bacteriol. 81, 233-235 (1961)].
# Streptococcus pyogenes = test: Experimental bacterial infection in mice, ED50; assay type: in vivo; settings: two doses, dose protecting 50% of animals; for ED50: Streptococcus pyogenes
# Experimental: as §1
# Streptococcus pneumoniae = test: Experimental bacterial infection in mice, ED50; assay type: in vivo; settings: two doses, dose protecting 50% of animals; for ED50: Streptococcus pneumoniae
# Experimental: as §1
# [1] = system: Staphylococcus epidermidis 222; test: MIC, standard agar-dilution assay; assay type: cell-based
# [2] = system: Haemophilus influenzae 76; test: MIC, standard agar-dilution assay; assay type: cell-based; settings: Haemophilus influenzae 76, Ampicillin-resistant strain
# [3] = system: Streptococcus pyogenes C203; test: MIC, standard agar-dilution assay; assay type: cell-based
# [4] = system: Staphylococcus aureus X1.1; test: MIC, standard agar-dilution assay; assay type: cell-based
# [5] = system: Streptococcus sp. group D 2041; test: MIC, standard agar-dilution assay; assay type: cell-based
# [6] = system: Streptococcus pneumoniae Park I; test: MIC, standard agar-dilution assay; assay type: cell-based
# [7] = system: Staphylococcus aureus S13E; test: MIC, standard agar-dilution assay; assay type: cell-based
# [8] = system: Streptococcus sp. group D X66; test: MIC, standard agar-dilution assay; assay type: cell-based; settings: Streptococcus sp. group D X66
# Escherichia coli EC14 = test: MIC, standard agar-dilution assay; assay type: cell-based
# [9] = system: Haemophilus influenzae C.L.; test: MIC, standard agar-dilution assay; assay type: cell-based; settings: Ampicillin-sensitive strain
# [10] = system: Klebsiella pneumoniae X68; test: MIC, standard agar-dilution assay; assay type: cell-based; settings: read-out: MIC
# [11] = sc, subcutaneous, read-out: Subcutaneous ED50
Compound,"ED50 (Staphylococcus aureus; po, read-out: Oral ED50)","ED50 (Streptococcus pyogenes; po, read-out: Oral ED50)","ED50 (Streptococcus pneumoniae; po, read-out: Oral ED50)",MIC ([1]; read-out: MIC),MIC ([2]; read-out: MIC),MIC ([3]; read-out: MIC),MIC ([4]; read-out: MIC),MIC ([5]; read-out: MIC),MIC ([6]; read-out: MIC),MIC [7],MIC ([8]; read-out: MIC),MIC (Escherichia coli EC14; read-out: MIC),MIC ([9]; read-out: MIC),also measured
"CCCCCCN[C@@H]1[C@H](C)[C@@H](O)[C@](C)(O)[C@@H](CC)OC(=O)[C@H](C)[C@@H](O[C@H]2C[C@@](C)(OC)[C@@H](O)[C@H](C)O2)[C@H](C)[C@@H](O[C@@H]2O[C@H](C)C[C@H](N(C)C)[C@H]2O)[C@](C)(O)C[C@H]1C [Compound 6, 9-Deoxo-9-(n-hexylamino)erythromycin]",38.6 mg/kg,17.7 mg/kg,14.3 mg/kg,0.25 µg/mL,4 µg/mL,0.125 µg/mL,1 µg/mL,4 µg/mL,< 0.008 µg/mL,1 µg/mL,0.125 µg/mL,64 µg/mL,4 µg/mL,–
"CCCCCCCN[C@@H]1[C@H](C)[C@@H](O)[C@](C)(O)[C@@H](CC)OC(=O)[C@H](C)[C@@H](O[C@H]2C[C@@](C)(OC)[C@@H](O)[C@H](C)O2)[C@H](C)[C@@H](O[C@@H]2O[C@H](C)C[C@H](N(C)C)[C@H]2O)[C@](C)(O)C[C@H]1C [Compound 7, 9-Deoxo-9-(-n-heptylamino)erythromycin]",> 50 mg/kg,30.6 mg/kg,33.2 mg/kg,0.25 µg/mL,2 µg/mL,0.015 µg/mL,0.25 µg/mL,2 µg/mL,0.015 µg/mL,–,0.06 µg/mL,64 µg/mL,1 µg/mL,–
"CC[C@H]1OC(=O)[C@H](C)[C@@H](O[C@H]2C[C@@](C)(OC)[C@@H](O)[C@H](C)O2)[C@H](C)[C@@H](O[C@@H]2O[C@H](C)C[C@H](N(C)C)[C@H]2O)[C@](C)(O)C[C@@H](C)[C@H](NCC2CC=CCC2)[C@H](C)[C@@H](O)[C@]1(C)O (stereo partly drawn) [Compound 15, 9-Deoxo-9-[(1-cyclohex-4-enylmethyl)amino]erythromycin]",20 mg/kg,14.9 mg/kg,8.7 mg/kg,0.25 µg/mL,2 µg/mL,0.06 µg/mL,1 µg/mL,8 µg/mL,< 0.008 µg/mL,1 µg/mL,0.25 µg/mL,64 µg/mL,4 µg/mL,–
"CC[C@H]1OC(=O)[C@H](C)[C@@H](O[C@H]2C[C@@](C)(OC)[C@@H](O)[C@H](C)O2)[C@H](C)[C@@H](O[C@@H]2O[C@H](C)C[C@H](N(C)C)[C@H]2O)[C@](C)(O)C[C@@H](C)[C@H](NCCCc2ccccc2)[C@H](C)[C@@H](O)[C@]1(C)O [Compound 17, (9S)-9-Deoxo-9-[(3-phenypropyl)amino]erythromycin]",36.9 mg/kg,14.1 mg/kg,17.2 mg/kg,0.5 µg/mL,2 µg/mL,0.015 µg/mL,1 µg/mL,2 µg/mL,0.015 µg/mL,0.5 µg/mL,0.06 µg/mL,128 µg/mL,2 µg/mL,–
"CC[C@H]1OC(=O)[C@H](C)[C@@H](O[C@H]2C[C@@](C)(OC)[C@@H](O)[C@H](C)O2)[C@H](C)[C@@H](O[C@@H]2O[C@H](C)C[C@H](N(C)C)[C@H]2O)[C@](C)(O)C[C@@H](C)[C@H](NCCCCCO)[C@H](C)[C@@H](O)[C@]1(C)O [Compound 21, 9-Deoxo-9-[(5-hydroxypentyl)amino]erythromycin]",> 50 mg/kg,42.6 mg/kg,> 50 mg/kg,0.5 µg/mL,–,< 0.008 µg/mL,0.5 µg/mL,4 µg/mL,< 0.008 µg/mL,0.25 µg/mL,0.25 µg/mL,32 µg/mL,2 µg/mL,MIC [10]: 128 µg/mL
"CC[C@H]1OC(=O)[C@H](C)[C@@H](O[C@H]2C[C@@](C)(OC)[C@@H](O)[C@H](C)O2)[C@H](C)[C@@H](O[C@@H]2O[C@H](C)C[C@H](N(C)C)[C@H]2O)[C@](C)(O)C[C@@H](C)[C@H](NCCCOC)[C@H](C)[C@@H](O)[C@]1(C)O [Compound 23, (9S)-9-Deoxo-9-[(3-methoxypropyl)amino]erythromycin]",16.4 mg/kg,13.5 mg/kg,15.9 mg/kg,0.5 µg/mL,4 µg/mL,0.125 µg/mL,2 µg/mL,8 µg/mL,0.03 µg/mL,2 µg/mL,0.25 µg/mL,64 µg/mL,4 µg/mL,ED50 (Staphylococcus aureus; [11]): 3.73 mg/kg; ED50 (Streptococcus pyogenes; [11]): 2.1 mg/kg; ED50 (Streptococcus pneumoniae; [11]): 8.3 mg/kg
"CC[C@H]1OC(=O)[C@H](C)[C@@H](O[C@H]2C[C@@](C)(OC)[C@@H](O)[C@H](C)O2)[C@H](C)[C@@H](O[C@@H]2O[C@H](C)C[C@H](N(C)C)[C@H]2O)[C@](C)(O)C[C@@H](C)[C@H](NCCCSC)[C@H](C)[C@@H](O)[C@]1(C)O [Compound 26, 9-Deoxo-9-[[3-(methylthio)propyl]amino]erythromycin]",–,7.9 mg/kg,9.2 mg/kg,0.5 µg/mL,4 µg/mL,0.015 µg/mL,0.5 µg/mL,2 µg/mL,0.015 µg/mL,0.25 µg/mL,0.25 µg/mL,128 µg/mL,4 µg/mL,–
"CCOC(=O)C1CC1CN[C@@H]1[C@H](C)[C@@H](O)[C@](C)(O)[C@@H](CC)OC(=O)[C@H](C)[C@@H](O[C@H]2C[C@@](C)(OC)[C@@H](O)[C@H](C)O2)[C@H](C)[C@@H](O[C@@H]2O[C@H](C)C[C@H](N(C)C)[C@H]2O)[C@](C)(O)C[C@H]1C (stereo partly drawn) [Compound 27, 9-Deoxo-9-[[[2-(ethoxycarbonyl)cyclopropyl]methyl]amino]erythromycin]",50 mg/kg,27.1 mg/kg,30.4 mg/kg,–,–,–,–,–,–,–,–,–,–,–
"CC[C@H]1OC(=O)[C@H](C)[C@@H](O[C@H]2C[C@@](C)(OC)[C@@H](O)[C@H](C)O2)[C@H](C)[C@@H](O[C@@H]2O[C@H](C)C[C@H](N(C)C)[C@H]2O)[C@](C)(O)C[C@@H](C)[C@H](NCCCC#N)[C@H](C)[C@@H](O)[C@]1(C)O [Compound 29, 9-Deoxo-9-[(3-cyanopropyl)amino]erythromycin]",36.1 mg/kg,21.1 mg/kg,28.7 mg/kg,–,–,–,–,–,–,–,–,–,–,–
"CC[C@H]1OC(=O)[C@H](C)[C@@H](O[C@H]2C[C@@](C)(OC)[C@@H](O)[C@H](C)O2)[C@H](C)[C@@H](O[C@@H]2O[C@H](C)C[C@H](N(C)C)[C@H]2O)[C@](C)(O)C[C@@H](C)[C@H](NCCC2=C(C)CCCC2(C)C)[C@H](C)[C@@H](O)[C@]1(C)O [Compound 30, 9-Deoxo-9-[[2-(2,6,6-trimethyl-1-cyclohexen-1-yl)ethyl]amino]erythromycin]",> 50 mg/kg,> 50 mg/kg,> 50 mg/kg,–,–,–,–,–,–,–,–,–,–,–
"CC[C@H]1OC(=O)[C@H](C)[C@@H](O[C@H]2C[C@@](C)(OC)[C@@H](O)[C@H](C)O2)[C@H](C)[C@@H](O[C@@H]2O[C@H](C)C[C@H](N(C)C)[C@H]2O)[C@](C)(O)C[C@@H](C)[C@H](NCCOC)[C@H](C)[C@@H](O)[C@]1(C)O [Compound 31, 9-Deoxo-9-[(2-Methoxyethyl)amino]erythromycin]",35.2 mg/kg,16.3 mg/kg,18.7 mg/kg,–,–,–,–,–,–,–,–,–,–,ED50 (Staphylococcus aureus; [11]): 2.5 mg/kg; ED50 (Streptococcus pyogenes; [11]): 2.1 mg/kg; ED50 (Streptococcus pneumoniae; [11]): 3.3 mg/kg
CCCN[C@@H]1[C@H](C)[C@@H](O)[C@@H](C)[C@@H](CC)OC(=O)[C@H](C)[C@@H](O[C@H]2C[C@@](C)(OC)[C@@H](O)[C@H](C)O2)[C@H](C)[C@@H](O[C@@H]2O[C@H](C)C[C@H](N(C)C)[C@H]2O)[C@](C)(O)C[C@H]1C [Compound 38],41 mg/kg,20.6 mg/kg,50 mg/kg,–,–,–,–,–,–,–,–,–,–,–
CCCCCCCCCCN[C@@H]1[C@H](C)[C@@H](O)[C@@H](C)[C@@H](CC)OC(=O)[C@H](C)[C@@H](O[C@H]2C[C@@](C)(OC)[C@@H](O)[C@H](C)O2)[C@H](C)[C@@H](O[C@@H]2O[C@H](C)C[C@H](N(C)C)[C@H]2O)[C@](C)(O)C[C@H]1C [Compound 41],> 50 mg/kg,> 50 mg/kg,> 50 mg/kg,–,–,–,–,–,–,–,–,–,–,–
CC[C@H]1OC(=O)[C@H](C)[C@@H](O[C@H]2C[C@@](C)(OC)[C@@H](O)[C@H](C)O2)[C@H](C)[C@@H](O[C@@H]2O[C@H](C)C[C@H](N(C)C)[C@H]2O)[C@](C)(O)C[C@@H](C)[C@H](NCCOCCOC)[C@H](C)[C@@H](O)[C@H]1C [Compound 49],> 50 mg/kg,40.9 mg/kg,> 56 mg/kg,–,–,–,–,–,–,–,–,–,–,–
Endo- and Exo-9-Deoxo-9-[(bicyclo[2.2.1]hept-2-en-5-yl-methyl)amino]erythromycin [Compound 19],–,–,–,–,–,–,–,–,–,2 µg/mL,–,–,–,Oral ED50 (Staphylococcus aureus; oral): >50 mg/kg; Oral ED50 (Streptococcus pyogenes; oral): 16.6 mg/kg; Oral ED50 (Streptococcus pneumoniae; oral): 25.0 mg/kg; MIC [1]: 1 µg/mL; MIC [2]: 8 µg/mL; MIC [3]: 0.25 µg/mL; MIC [4]: 2 µg/mL; MIC [5]: 8 µg/mL; MIC [6]: 0.015 µg/mL; MIC [8]: 1 µg/mL; MIC (Escherichia coli EC14): 64 µg/mL; MIC [9]: 8 µg/mL

# From patent EP0238178B1, “Novel derivatives of erythromycylamine” (ELI LILLY AND COMPANY, priority 1986, dated 1987)
